One series has as its target T1, CES1 (Homo sapiens, UniProt P23141).
T1 construct: purchased Sigma-Aldrich E0162
T1 sequence (P23141 18-567): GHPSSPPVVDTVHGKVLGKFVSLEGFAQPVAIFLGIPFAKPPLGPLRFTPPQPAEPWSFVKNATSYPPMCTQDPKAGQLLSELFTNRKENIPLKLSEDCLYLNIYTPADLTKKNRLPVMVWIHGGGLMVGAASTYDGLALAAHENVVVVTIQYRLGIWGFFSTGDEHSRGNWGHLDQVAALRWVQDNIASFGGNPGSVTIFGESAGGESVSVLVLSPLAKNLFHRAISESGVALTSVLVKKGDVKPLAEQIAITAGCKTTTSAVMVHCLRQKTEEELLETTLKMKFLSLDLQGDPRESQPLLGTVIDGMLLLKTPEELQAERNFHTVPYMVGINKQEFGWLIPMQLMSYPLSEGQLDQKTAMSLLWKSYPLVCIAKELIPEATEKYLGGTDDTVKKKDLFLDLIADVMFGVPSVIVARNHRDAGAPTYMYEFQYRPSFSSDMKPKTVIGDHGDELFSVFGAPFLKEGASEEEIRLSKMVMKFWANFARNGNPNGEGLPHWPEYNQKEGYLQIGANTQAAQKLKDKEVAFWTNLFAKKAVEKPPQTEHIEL
The series can be described thus: In vitro CES1 enzyme-based assay (4-NPA substrate). It counts as biochemical. To be noted: even at 300μM. As to the method: The recombinant purified CES2 and CES1 enzymes, and 4-NPA were purchased from Sigma-Aldrich with product IDs E0412, E0162, and N8130, respectively. […] All compounds were dissolved in DMSO at 10mM. In the screening assay, the compounds were diluted in 50mM HEPES and the final compound concentration in the reaction system was adjusted to 50μM. […] The assays were conducted at 300μl total volume in 96-well plates. Reactions consisted of the following: 100μL 50mM HEPES with 20 units of enzyme, 10μL compound solution (various concentrations), 2μL 300mM 4-NAP, and 188μL 50mM HEPES, pH 7.4. The compound and 4-NAP solution were added into the plate first and then the reaction was initiated by the addition of enzyme solution. After 15 minutes incubation at 25°C, absorbance was measured using a microplate reader at 405nm in FLUOstar Omega Microplate Reader. The CES1/CES2 inhibitor compound bis-(4-nitrophenyl) phosphate (BNPP) was used as positive control in all the assays.

For series [1], the system named is different cancer cell lines including CT-26. The series can be described thus: Cell viability analysis on cancer cell lines. It counts as cell-based. Particulars: Hst alone. As to the method: CT-26 (murine colon cancer), HCT-116 (human colon cancer), CRL-1739 (human stomach gastric cancer) and CRL-1682 (human pancreatic cancer) cell lines were purchased form ATCC. All cells were cultured in T-75 flasks (Falcon). All media were purchased from Life Technologies and supplemented with 10% fetal bovine serum (Sigma) and 1% penicillin-streptomycin (Fisher Scientific). CT-26 and CRL-1682 were cultured in RPMI-1640 medium. CRL-1739 and HCT-116 were cultured in DMEM medium. All cells were cultured in a 37° C, 5% CO2 incubator.

For series [2] the following is noted: single oral dose of 135 mg Hst, healthy adult subjects, cited from earlier work.
Series [3] concerns murine CT-26 tumor-bearing immuno-competent mice. Nature of the series: CPT-11 induced diarrhea in CT-26 tumor-bearing mice. It counts as in vivo. Particulars: for mice with rapid recovery in body weight: 5 days after cessation of CPT-11; for mice that had to be euthanized: by day 12; for mice that never showed any signs of diarrhea: through end of study. As to the method:
We tested the effect of Hst (20 and 100 mg/kg) on murine CT-26 tumor-bearing immuno-competent mice with CPT-11 (50 mg/kg, roughly equivalent to 5 mg/kg typical human CPT-11 dose) intraperitoneally injected daily from day 1-9. Hst was given from day 1-15 and 30 min before CPT-11 administration on day 1-9. Changes of stool character were recorded twice daily to determine the severity of diarrhea. Fecal staining of skin or lose watery stool was determined as diarrhea but not severe, and only the black sticky stool (bloody diarrhea) was determined as severe diarrhea.
CT-26 cell line was used to make the tumor bearing mouse model by s.c. injection of 0.02mL cells in PBS at 5×10^7 cells/mL into the posterior mid-dorsum. Tumor volumes were estimated by the formula π/6×a^2×b, where a is the short and b is the long axis. When tumor volume reached roughly 100mm^3 (~10 days after implantation, defined as day 1), mice were randomly separated into 5 groups, 1). CPT-11 only group, receiving CPT-11 50mg/kg + vehicle 2). CPT-11+Hst 20mg/kg, 3). CPT-11+Hst 100mg/kg, 4). Hst 100mg/kg only, and 5) vehicle control group. CPT-11 was administrated by i.p. injection from day 1 to day 9 while Hst were administrated by oral gavage from day 1 to the end of study. An equivalent dosage of saline or CMC were administrated by i.p injection and oral gavage as vehicle, respectively. Mice were examined daily for signs of diarrhea (fecal staining of skin, lose watery stool) and bloody diarrhea (black sticky stool), as well as tumor growth. After sacrifice, jejunum, ileum and colon samples were dissected. Tissues were formalin-fixed and paraffin embedded for histological examination using 4μm-thick, 100μm step serial sections stained with H&E. A histologic score to evaluate inflammation, epithelial changes and mucosa architecture for each slide was calculated as described previously. For immunohistochemical staining, sections were stained with antibodies against Ki67, β-catenin, F4/80, Ly-6B.2 and pSTAT3 (Tyr705) overnight at 4°C. Slides were then washed and stained with the appropriate secondary antibodies. Mounted slides were examined under Olympus BX61 upright microscopy (HMRI Advanced Cellular and Tissue Microscope Core Facility).

Another series has as its system liver CES. Nature of the series: Ex vivo liver CES assay (microsomes) after oral Hst. In kind it is in vivo, mice. To be noted: 20 mg/kg Hst oral. How it is done:
(§1) Single oral dose of 135 mg Hst in healthy adult subjects was rapidly absorbed and the concentration in plasma observed 20 min after dosing and reached a peak in 4h.
(§2) Microsomes of the liver and small intestinal epithelium were prepared from animals with or without Hst treatment. Animals were killed by exsanguination at 4h after single oral dosing of Hst. Their liver and small intestines were removed immediately and cooled in cold physiological saline. Small intestine epithelium was scraped from the intestine with slide glass. Tissues were homogenized in 1.15% KCl on ice by a Teflon homogenizer, followed by centrifugation at 9,000×g for 10min at 4°C. The supernatant was re-centrifuged at 105,000×g for 60 min at 4°C, resulting in sedimentation of the microsome. The microsomal pellet was re-suspended in 1.15% KCl. To measure CES activity, microsomes (protein content: 1 mg/mL) were incubated with 4-NAP solution in phosphate-buffered saline at 37°C, and 50μL aliquots were sampled up to 20 min.

In a further series the test system is small intestinal CES. Nature of the series: Ex vivo small intestinal CES assay (microsomes) after oral Hst. It counts as in vivo, mice. Particulars: 20 mg/kg Hst oral, 4h after single dose, n=5. As to the method: as §1, §2

`COc1ccc([C@@H]2CC(=O)c3c(O)cc(O)cc3O2)cc1O` [hesperetin]: the CES1 inhibition result at CES1 is listed as “no significant CES1 inhibition”. Further, the cytotoxicity in vitro entry in series [1] is reported as “did not show any potent cytotoxicity effects”. The “time after dosing at which concentration in plasma was observed” value in series [2] is reported as 20 min. The “time to peak plasma concentration” value in series [2] is 4 h. In addition, the Cmax in series [2] (read-out: mean peak plasma concentration (Cmax)) was 2.73 ± 1.35 µM. Moreover, the “mice with severe diarrhea” value in series [3] (CPT-11 + Hst 20 mg/kg oral, day 11) is listed as 2 out of 10; in series [3] (CPT-11 + Hst 100 mg/kg oral, until day 12), 2 out of 10. Moreover, the “mice with rapid recovery in body weight” value in series [3] (CPT-11 + Hst 20 mg/kg) and in series [3] (CPT-11 + Hst 100 mg/kg) was 20% throughout. For the same compound, the “mice that had to be euthanized” value is given as 40% in series [3] (CPT-11 + Hst 20 mg/kg) and 20% in series [3] (CPT-11 + Hst 100 mg/kg). Moreover, the “body weight lost on average” value was 20% in series [3] (CPT-11 + Hst 20 mg/kg, day 11) and 17% in series [3] (CPT-11 + Hst 100 mg/kg, day 11). Besides, the “mice that never showed any signs of diarrhea” value in series [3] (CPT-11 + Hst 20 mg/kg) came to 20%; in series [3] (CPT-11 + Hst 100 mg/kg), 30%. The same compound yielded a severe diarrhea prohibited in series [3] (oral Hst, CPT-11 administered tumor-bearing mice) of 80%. In addition, the “liver CES activity” value with liver CES (4h after single dose, n=5) is reported as 8.89±0.74 nmol/min/g protein. In the series on liver CES (vs control), the “change of liver CES activity” value is “did not have an obvious change”. The “small intestinal CES activity” value with small intestinal CES turned out to be 2.28±1.42 nmol/min/g protein. Further, the “reduction of small intestinal CES activity” value in the series on small intestinal CES (vs control) is 56%.

Source of the values: PMC6021345 (Oncotarget, 2018).
